System: Phosphorylation of STAT6 in human A549 cells
Test: Phosphorylated STAT6 (pSTAT6) flow cytometry assay in human A549 cells
Type: cell-based
Details: read-out: STAT6 IL4 pSTAT6 assay in A549 cells: Average IC50
Description: Example 3. Phosphorylated STAT6 (pSTAT6) Flow Cytometry Assay in Human A549 Cells
Phosphorylation of STAT6 in human A549 cells was quantitatively measured using flow cytometry technology.

Row | Structure (SMILES) | IC50
1 | CCn1c(N2CCN(C(=O)c3cc4c(-c5ccccc5OC)cc(C5=CCCN(C(=O)CCn6ccnn6)C5)c(F)c4[nH]3)CC2)cc2ccccc21 [Example I-967] | 100 to 1000 nM
2 | CCc1nccn1-c1cc(C2=CCCN(C(=O)CCn3ccnn3)C2)c(F)c2[nH]c(C(=O)N3CCN(c4ncccc4OC)CC3)cc12 [Example I-692] | > 100000 nM
3 | CCn1ncc2c1CN(C(=O)c1cc3c(-c4ccccc4OC)cc(C4=CCCN(C(=O)CCn5ccnn5)C4)c(F)c3[nH]1)C2 [Example I-507] | 10000 to 100000 nM
4 | CCc1ccncc1-c1cc(C2=CCCN(C(=O)CCn3ccnn3)C2)c(F)c2[nH]c(C(=O)N3Cc4cnn(C)c4C3)cc12 [Example I-704] | 10000 to 100000 nM
5 | COc1cc(F)cnc1N1CCN(C(=O)c2cc(-c3cccnc3C3CC3)c3c(c2)cc(C2=CCCN(C(=O)CCn4ccnn4)C2)n3CC2CC2)CC1 [Example I-728] | > 100000 nM
6 | COc1ccccc1-c1cc(C2=CCCN(C(C)=O)C2)cc2[nH]c(C(=O)N(C)C)cc12 [Example I-1091] | 100 to 1000 nM
7 | COc1cc(F)cnc1N1CCN(C(=O)c2cc3c(-c4ccc(C(C)(C)C#N)cc4)cc(C4=CCCN(C(=O)CCn5ccnn5)C4)c(F)c3[nH]2)CC1 [Example I-1142] | < 100 nM
8 | COc1c(F)cc(F)cc1-c1cc(C2=CCCN(C(=O)CCn3ccnn3)C2)c(F)c2[nH]c(C(=O)N3CCN(c4ncccc4OC4CC4)CC3)cc12 [Example I-597] | < 100 nM
9 | COc1ccccc1N1CCN(C(=O)c2cc3c(-c4cccnc4OC)cc(C4=CCCN(C(=O)CCn5ccnn5)C4)c(F)c3[nH]2)CC1 [Example I-599] | < 100 nM
10 | CCc1cc(C)ncc1-c1cc(C2=CCCN(C(=O)CCc3nccs3)C2)c(F)c2[nH]c(C(=O)N3CCN(c4ncc(F)cc4OC)CC3)cc12 [Example I-525] | < 100 nM
11 | COc1cc(N(C)C)ccc1-c1cc(C2=CCCN(C(=O)CCn3ccnn3)C2)c(F)c2[nH]c(C(=O)N3CCN(c4ncc(Cl)cc4OC)CC3)cc12 [Example I-1039] | < 100 nM
12 | CC(=O)N1CCC=C(c2cc(-c3cnc4[nH]cc(C)c4c3)c3cc(C(=O)N(C)C)[nH]c3c2F)C1 [Example I-897] | 100 to 1000 nM
13 | CCCOc1ncc(C)cc1-c1cc(C2=CCCN(C(=O)CCn3ccnn3)C2)c(F)c2[nH]c(C(=O)N3CCN(c4ncc(F)cc4OC)CC3)cc12 [Example I-654] | < 100 nM
14 | COc1cccnc1N1CCN(C(=O)c2cc3ccc(C4=CCCN(C(C)=O)C4)c(F)c3[nH]2)CC1 [Example I-902] | 1000 to 10000 nM
15 | CCc1ccncc1-c1cc(C2=CCCN(C(=O)CCC(=O)O)C2)c(F)c2[nH]c(C(=O)N3CCN(c4ncc(F)cc4OC)CC3)cc12 [Example I-1170] | 100 to 1000 nM
16 | COc1cccc(N2CCN(C(=O)c3cc4c(-c5ccncc5OC)cc(C5=CCCN(C(=O)CCn6ccnn6)C5)c(F)c4[nH]3)CC2)n1 [Example I-612] | < 100 nM

Row | Structure (SMILES) | IC50
17 | COc1cc(N2CCN(C(=O)c3cc4c(-c5ccccc5OC)cc(C5=CCCN(C(=O)CCn6ccnn6)C5)c(F)c4[nH]3)CC2)c2ccccc2c1 [Example I-957] | 100 to 1000 nM
18 | CCc1cc(C)ncc1-c1cc(C2=CCCN(C(=O)CCn3ccnn3)C2)c(F)c2[nH]c(C(=O)N3CCN(c4ncc(F)cc4OC)CC3)cc12 [Example I-707] | 10000 to 100000 nM
19 | COc1ccccc1-c1cc(C2=CCCN(C(=O)CCn3ccnn3)C2)c(F)c2[nH]c(C(=O)N3CC(Oc4cccnc4)C3)cc12 [Example I-992] | < 100 nM
20 | COc1ccccc1-c1cc(C2=CCCN(C(=O)CCn3ccnn3)C2)c(F)c2[nH]c(C(=O)N3CCN(c4cccc(OC(F)F)n4)CC3)cc12 [Example I-927] | 100 to 1000 nM
21 | COc1ccccc1-c1cc(C2=CCCN(C(=O)CCn3ccnn3)C2)c(F)c2[nH]c(C(=O)N3CCN(c4ccc5nn(C)cc5c4C)CC3)cc12 [Example I-945] | 100 to 1000 nM
22 | COc1cccnc1N1CCN(C(=O)c2cc3c(-n4ccc5ccccc54)cc(C4=CCCN(C(=O)CCn5ccnn5)C4)c(F)c3[nH]2)CC1 [Example I-578] | < 100 nM
23 | COc1ccccc1-c1cc(C2=CCCN(C(=O)CCn3ccnn3)C2)c(F)c2[nH]c(C(=O)N3CCN(c4cc(F)ccn4)CC3)cc12 [Example I-934] | < 100 nM
24 | CNc1ccc(-c2cc(C3=CCCN(C(=O)CCn4ccnn4)C3)cc3cc(C(=O)N(C)C)oc23)c(OC)c1 [Example I-1056] | < 100 nM
25 | COc1ccncc1-c1cc(C2=CCCN(C(=O)CCn3ccnn3)C2)c(F)c2[nH]c(C(=O)N3CC=C(c4ccc(F)c(OC)n4)CC3)cc12 [Example I-434] | < 100 nM
26 | COc1cc(F)cnc1N1CCN(C(=O)c2cc3c(-c4ccc(C(C)N5CCOCC5)cc4)cc(C4=CCCN(C(=O)CCn5ccnn5)C4)c(F)c3[nH]2)CC1 (centres unmarked) [Example I-1121] | < 100 nM
27 | COc1ccccc1-c1cc(C2=CCCN(C(=O)CCn3ccnn3)C2)c(F)c2[nH]c(C(=O)N3CCN(c4nc(C)cs4)CC3)cc12 [Example I-1024] | < 100 nM
28 | COc1ccccc1-c1cc(C2=CCCN(C(=O)CCn3ccnn3)C2)c(F)c2[nH]c(C(=O)N3CCN(S(C)(=O)=O)CC3)cc12 [Example I-989] | < 100 nM
29 | COc1ccccc1-c1cc(C2=CCCN(C(=O)CCn3ccnn3)C2)c(F)c2[nH]c(C(=O)N3CCN(c4cc(C#N)ccn4)CC3)cc12 [Example I-875] | < 100 nM
30 | COc1cc(F)cnc1N1CCN(C(=O)c2cc3c(-c4cccc(-c5cccnc5)c4)cc(C4=CCCN(C(=O)CCn5ccnn5)C4)c(F)c3[nH]2)CC1 [Example I-629] | < 100 nM
31 | CCCCCCc1cc(C2=CCCN(C(=O)CCn3ccnn3)C2)c(F)c2[nH]c(C(=O)N3CCN(c4ncc(F)cc4OC)CC3)cc12 [Example I-695] | > 100000 nM

Continued, values first:

Row | IC50 | Structure (SMILES)
32 | < 100 nM | COc1ccccc1-c1cc(C2=CCCN(C(=O)CCn3ccnn3)C2)c(F)c2[nH]c(C(=O)N3CCN(c4cn(C)c(=O)c5ccccc45)CC3)cc12 [Example I-905]
33 | < 100 nM | COc1ccccc1-c1cc(C2=CCCN(C(=O)CCn3ccnn3)C2)c(F)c2[nH]c(C(=O)N3CCN(c4nccc(C)c4OC)CC3)cc12 [Example I-415]
34 | < 100 nM | COc1cc(F)cnc1N1CCN(C(=O)c2cc3c(-c4cccc(C(C)(C)C#N)c4)cc(C4=CCCN(C(=O)CCn5ccnn5)C4)c(F)c3[nH]2)CC1 [Example I-682]
35 | < 100 nM | COc1ccncc1-c1cc(C2=CCCN(C(=O)CCn3ccnn3)C2)c(F)c2[nH]c(C(=O)N3CCN(c4ccccc4OC)CC3)cc12 [Example I-565]
36 | < 100 nM | CCc1cc(C)ncc1-c1cc(C2=CCCN(C(=O)CCc3nccs3)C2)c(F)c2[nH]c(C(=O)N3Cc4cnn(CC)c4C3)cc12 [Example I-538]
37 | < 100 nM | COc1c(F)cccc1-c1cc(C2=CCCN(C(=O)CCn3ccnn3)C2)cc2cc(C(=O)N(C)C)oc12 [Example I-1076]
38 | < 100 nM | COc1ccccc1-c1cc(C2=CCCN(C(=O)CCn3ccnn3)C2)c(F)c2sc(C(=O)N(C)C)cc12 [Example I-337, 6-(1-(3-(1H-1,2,3-triazol-1-yl)propanoyl)-1,2,5,6-tetrahydropyridin-3-yl)-7-fluoro-4-(2-methoxyphenyl)-N,N-dimethylbenzo[b]thiophene-2-carboxamide]
39 | < 100 nM | COc1ccccc1-c1cc(C2=CCCN(C(=O)CCn3ccnn3)C2)c(F)c2[nH]c(C(=O)N3Cc4cnn(C)c4C3)cc12 [Example I-464]
40 | < 100 nM | Cc1ccc(Cl)c(-c2cc(C3=CCCN(C(=O)CCn4ccnn4)C3)cc3[nH]c(C(=O)N(C)C)cc23)c1 [Example I-1061]
41 | < 100 nM | COc1ccccc1-c1cc(C2=CCCN(C(=O)CCn3ccnn3)C2)c(F)c2[nH]c(C(=O)N3CCN(c4cccnc4OC)CC3)cc12 [Example I-347]
42 | < 100 nM | COc1cccc(N2CCN(C(=O)c3cc4c(-c5cccnc5OC)cc(C5=CCCN(C(=O)CCn6ccnn6)C5)c(F)c4[nH]3)CC2)n1 [Example I-606]
43 | < 100 nM | COc1cc(F)cnc1N1CCN(C(=O)c2cc3c(-c4ccc(C(=O)N5CCCC5)c(F)c4)cc(C4=CCCN(C(=O)CCn5ccnn5)C4)c(F)c3[nH]2)CC1 [Example I-1144]
44 | < 100 nM | COc1ccnc(N2CCN(C(=O)c3cc4c(-c5ccccc5OC)cc(C5=CCCN(C(=O)CCn6ccnn6)C5)c(F)c4[nH]3)CC2)c1 [Example I-900]
45 | < 100 nM | COC(=O)CCC#Cc1cc(C2=CCCN(C(=O)C3Cc4ccccc4CN3C=O)C2)cc2cc(C(=O)N(C)C)oc12 (centres unmarked) [Example I-823]
46 | < 100 nM | COc1ccccc1-c1cc(C2=CCCN(C(=O)CCn3ccnn3)C2)c(F)c2[nH]c(C(=O)N3CCN(C4CC4)CC3)cc12 [Example I-325]
47 | < 100 nM | COc1cc(F)cnc1N1CCN(C(=O)c2cc3c(-c4ccc(C)c5ncccc45)cc(C4=CCCN(C(=O)CCn5ccnn5)C4)c(F)c3[nH]2)CC1 [Example I-635]
48 | < 100 nM | COc1ccncc1-c1cc(C2=CCCN(C(=O)CCn3ccnn3)C2)c(F)c2[nH]c(C(=O)N3CCN(c4ccc(C5CC5)cc4OC)CC3)cc12 [Example I-481]
49 | < 100 nM | COc1cc(F)cnc1N1CCN(C(=O)c2cc3c(C4=CCOCC4)cc(C4=CCCN(C(=O)CCn5ccnn5)C4)c(F)c3[nH]2)CC1 [Example I-1156]
50 | < 100 nM | COc1ccccc1-c1cc(C2=CCCN(C(=O)CCn3ccnn3)C2)c(F)c2[nH]c(C(=O)N3CCN(c4cncn4C)CC3)cc12 [Example I-1026]
51 | < 100 nM | COc1ccccc1-c1cc(C2=CCCN(C(=O)CCn3ccnn3)C2)c(F)c2[nH]c(C(=O)N3CCN(c4cnn5c4CCC5)CC3)cc12 [Example I-1013]
52 | < 100 nM | CCOc1ccncc1-c1cc(C2=CCCN(C(=O)CCn3ccnn3)C2)c(F)c2[nH]c(C(=O)N3CCN(c4cncnc4OC)CC3)cc12 [Example I-470]
53 | < 100 nM | CCc1ccncc1-c1cc(C2=CCCN(C(=O)CC(=O)O)C2)c(F)c2[nH]c(C(=O)N3Cc4cnn(CC)c4C3)cc12 [Example I-787]
54 | < 100 nM | COc1ccncc1-c1cc(C2=CCCN(C(=O)CCn3ccnn3)C2)c(F)c2[nH]c(C(=O)N3CCN(c4ccc(F)c(OC)n4)CC3)cc12 [Example I-444]
55 | < 100 nM | COc1cc(F)cnc1N1CCN(C(=O)c2cc3c(-c4ccncc4C(C)C)cc(C4=CCCN(C(=O)CCn5cccn5)C4)c(F)c3[nH]2)CC1 [Example I-685]
56 | < 100 nM | CNc1ccc(-c2cc(C3=CCCN(C(=O)CCn4ccnn4)C3)cc3[nH]c(C(=O)N(C)C)cc23)c(Cl)c1 [Example I-1050]

From patent US20250214977A1, “STAT6 INHIBITORS AND USES THEREOF” (Kymera Therapeutics, Inc., priority 2024, published 2025)
